Experiment [1] deals with T1, Proteasome Macropain subunit MB1 (Homo sapiens) (UniProt P28074).
T1 sequence (whole entry): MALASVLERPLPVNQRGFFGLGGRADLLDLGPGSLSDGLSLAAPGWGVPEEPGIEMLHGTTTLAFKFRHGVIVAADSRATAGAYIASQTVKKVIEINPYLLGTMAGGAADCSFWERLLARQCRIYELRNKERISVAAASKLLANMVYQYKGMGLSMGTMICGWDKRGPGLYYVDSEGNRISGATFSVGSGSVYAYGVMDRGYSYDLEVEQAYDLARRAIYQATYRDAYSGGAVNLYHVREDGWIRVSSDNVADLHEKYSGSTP
Put plainly: Inhibition of chymotrypsin-like activity of 20S human proteasome assessed as […] at 25 ug/ml using Promega proteasome-Glo-3 substrate incubated for 15 mins by luminescence assay.

For experiment [2], the target named is T2, Proteasome Macropain subunit MB1 (Homo sapiens, UniProt P28074).
T2 sequence (P28074 whole entry): T1 sequence (whole entry)
In words: Inhibition of chymotrypsin-like activity of 20S human proteasome assessed as […] at using Promega proteasome-Glo-3 substrate incubated for 15 mins by luminescence assay.

Activity calls are given as the source filed them. The rule behind the calls is not given here.

The inhibition is the percentage by which the read-out fell short of the control. In general, IC50 refers to the point on the concentration scale where inhibition reaches its midpoint.

For the molecule `Cn1nc(-c2ccc(OCCCC[P+](c3ccccc3)(c3ccccc3)c3ccccc3)cc2)c2ccccc2c1=O`, the inhibition entry in experiment [1] was “inactive”.

Turning to `CCN(CC)c1ccc(-n2nc(-c3ccc(OCCCCN4CCOCC4)cc3)c3ccccc3c2=O)cc1`, the inhibition in experiment [1] is 5.1%.

For `O=c1c2ccccc2c(-c2ccc(OCCCC[P+](c3ccccc3)(c3ccccc3)c3ccccc3)cc2)nn1Cc1ccccc1`, the inhibition in experiment [1] is 80.9%. The IC50 in experiment [2] came out at 11.9 µM.

On to `CC(C)Cn1nc(-c2ccc(OCCCC[P+](c3ccccc3)(c3ccccc3)c3ccccc3)cc2)c2ccccc2c1=O`, for which, in experiment [1], the inhibition turned out to be 52.4%. Besides, the half-inhibitory concentration (IC50) in experiment [2] was 26 µM.

With `CCN(CC)c1ccc(-n2nc(-c3ccc(OCCCC[P+](C4CCCCC4)(C4CCCCC4)C4CCCCC4)cc3)c3ccccc3c2=O)cc1`, the inhibition in experiment [1] was determined as 98.5%. For the same molecule, in experiment [2], the IC50 was 13.3 µM.

As for `CCN(CC)c1ccc(-n2nc(-c3ccc(OCCCC[n+]4ccccc4)cc3)c3ccccc3c2=O)cc1`, in experiment [1], the inhibition amounted to 8.6%.

In the case of `CCN(CC)c1ccc(-n2nc(-c3ccc(OCCCC[n+]4ccn(C)c4)cc3)c3ccccc3c2=O)cc1`, in experiment [1], the inhibition came to 5.8%.

Regarding `O=c1c2ccccc2c(-c2ccc(OCCCC[P+](c3ccccc3)(c3ccccc3)c3ccccc3)cc2)nn1CC1CC1`, in experiment [1], the inhibition came to 48.2%. In addition, the IC50 in experiment [2] is 23 µM.

As for `O=c1c2ccccc2c(-c2ccc(OCCCC[P+](c3ccccc3)(c3ccccc3)c3ccccc3)cc2)nn1-c1cccs1`, the inhibition in experiment [1] turned out to be 93.2%. The IC50 in experiment [2] stood at 17.6 µM.

For `O=c1c2ccccc2c(-c2ccc(OCCCC[P+](c3ccccc3)(c3ccccc3)c3ccccc3)cc2)nn1-c1ccc2ccccc2c1`, in experiment [1], the inhibition was 98.7%. Moreover, the 50% inhibitory concentration (IC50) in experiment [2] is 13.8 µM.

As for `CNc1ccc(-n2nc(-c3ccc(OCCCC[P+](c4ccccc4)(c4ccccc4)c4ccccc4)cc3)c3ccccc3c2=O)cc1`, the inhibition in experiment [1] amounted to 94.3%. In experiment [2], the IC50 came to 14.2 µM.

Turning to `O=c1c2ccccc2c(-c2ccc(OCCCC[P+](c3ccccc3)(c3ccccc3)c3ccccc3)cc2)nn1CC1CCCCC1`, the inhibition in experiment [1] worked out at 84.9%. For the same molecule, in experiment [2], the IC50 was determined as 16.1 µM.

As for `CCN(CC)c1ccc(-n2nc(-c3ccc(OCCCCP(c4ccccc4)c4ccccc4)cc3)c3ccccc3c2=O)cc1`, the inhibition in experiment [1] was 19.6%.

Turning to `CCCCn1nc(-c2ccc(OCCCC[P+](c3ccccc3)(c3ccccc3)c3ccccc3)cc2)c2ccccc2c1=O`, in experiment [1], the inhibition stood at 35.8%.

In the case of `CCn1nc(-c2ccc(OCCCC[P+](c3ccccc3)(c3ccccc3)c3ccccc3)cc2)c2ccccc2c1=O`, the inhibition result in experiment [1] is “inactive”.

For `CCN(CC)c1ccc(-n2nc(-c3ccc(OCCCC[N+](CC)(CC)CC)cc3)c3ccccc3c2=O)cc1`, the inhibition in experiment [1] stood at 10.3%.

On to `CCN(CC)c1ccc(-n2nc(-c3ccc(OCCCC[P+](c4ccccc4)(c4ccccc4)c4ccccc4)cc3)c3ccccc3c2=O)cc1`, for which the inhibition in experiment [1] is 99.1%. Moreover, the IC50 in experiment [2] is 10.2 µM.

For `CCN(CC)c1ccc(-n2nc(-c3ccc(OCCCCN4CCCC4)cc3)c3ccccc3c2=O)cc1`, the inhibition in experiment [1] was 13.2%.

On to `CCN(CC)c1ccc(-n2nc(-c3ccc(OCCCCN4CCCCC4)cc3)c3ccccc3c2=O)cc1`, for which, in experiment [1], the inhibition amounted to 8%.

Regarding `O=c1c2ccccc2c(-c2ccc(OCCCC[P+](c3ccccc3)(c3ccccc3)c3ccccc3)cc2)nn1-c1ccccc1`, in experiment [1], the inhibition is 99.5%. Moreover, the IC50 in experiment [2] came to 9.88 µM.

Take `O=c1c2ccccc2c(-c2ccc(OCCCC[P+](c3ccccc3)(c3ccccc3)c3ccccc3)cc2)nn1CC1CCC1`: the inhibition in experiment [1] was 70.5%. Further, the IC50 in experiment [2] turned out to be 21.5 µM.

As to `CCCn1nc(-c2ccc(OCCCC[P+](c3ccccc3)(c3ccccc3)c3ccccc3)cc2)c2ccccc2c1=O`, in experiment [1], the inhibition was 12.1%.

For `CCN(CC)c1ccc(-n2nc(-c3ccc(OCCCCBr)cc3)c3ccccc3c2=O)cc1`, the inhibition result in experiment [1] was “inactive”.

The values are drawn from ChEMBL document CHEMBL3797130, “Development of novel proteasome inhibitors based on phthalazinone scaffold” (Bioorg Med Chem Lett, 2016).
